Test results from patent US20220143148A1, “COMPOSITIONS AND METHODS FOR MODULATING CGRP SIGNALING TO REGULATE INTESTINAL INNATE LYMPHOID CELLS” (The Broad Institute, Inc., priority 2019, published 2022).

Columns and labels:
KLRG1+ ILC2s [1] = assay: In vitro proliferation assay (CellTrace Violet, flow cytometry); type: cell-based, mouse; conditions: IL-25 with α-CGRP plus adenylate cyclase inhibitor
Procedure: (§1) Flow cytometry and cell sorting. Cells were washed and suspended in MACS buffer (pH 7.4; PBS plus 2% FCS and 2 mM EDTA). Nonspecific antibody binding was blocked with CD16/CD32 (2.4G2) antibody for 15 min on ice. Cells were then stained with antibody cocktails for 30 min at 4° C. Lineage-positive cells were excluded for analyzing ILCs by staining for CD3ε (145-2C11), CD5 (53-7.3), CD19 (6D5), CD11b (M1/70), CD8 (53-6.7), CD11c (N418), Gr-1 (RB6-8C5), TCRγδ (eBioGL3 (GL-3, GL3)) and TCRβ (H57-597). To analyze mast cells, lineage-positive cells were excluded by staining for CD3ε, CD5, CD19, CD11c and SiglecF (E50-2440). For surface staining, antibodies for KLRG1 (2F1), CD45 (30-F11), CD127 (A7R34), CCR6 (29-2L17), NKp46 (29A1.4), CD90.2 (53-2.1), FcεRI (Mar-1), IgD (11-26c.2a) and ST2 (DJ8) were used. For intracellular staining, cells were fixed and permeabilized using the Foxp3 transcription factor staining buffer set, followed by staining with anti-GATA-3 (TWAJ) or anti-RORγt (B2D) antibodies. Dead cells were excluded with 7-AAD or Fixable Viability Dye eFluor 780. Flow cytometry was performed on Cytoflex (Beckman Coulter) and analyzed with FlowJo software. Sorting was performed with the SH800S Cell Sorter (Sony Biotechnology).
ILC2 culture. […]

TDAG8 (GPR65) = conditions: cited from earlier work
TDAG8 = target: T1, TDAG8 (Rattus norvegicus, UniProt A0A8I6AHC6); conditions: in vivo; cited from earlier work
T1 construct: host or cells: rat, in vivo (endogenous receptor)
T1 sequence (A0A8I6AHC6 1-337): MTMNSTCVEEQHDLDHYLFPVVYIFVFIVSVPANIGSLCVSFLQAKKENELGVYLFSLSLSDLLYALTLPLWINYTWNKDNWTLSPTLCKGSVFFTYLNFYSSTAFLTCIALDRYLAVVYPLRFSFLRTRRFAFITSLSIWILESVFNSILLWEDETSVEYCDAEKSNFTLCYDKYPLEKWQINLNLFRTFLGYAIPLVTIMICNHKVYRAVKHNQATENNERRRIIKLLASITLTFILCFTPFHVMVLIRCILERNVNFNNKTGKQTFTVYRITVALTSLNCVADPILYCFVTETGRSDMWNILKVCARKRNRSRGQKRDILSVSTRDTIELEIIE

intestinal KLRG1+ ILC2s = assay: Bulk RNA-seq of intestinal KLRG1+ ILC2s stimulated in vitro; type: cell-based, mouse; conditions: IL-25 alone in vitro
Description: To determine if α-CGRP can directly trigger signaling in ILC2s and impact their transcriptional states under inflammatory conditions, Applicants performed bulk RNA-seq of KLRG1^+ ILC2s isolated from the small intestine and stimulated in vitro with IL-25 alone or together with α-CGRP. […] Thus, α-CGRP inhibits IL-25-induced proliferation and activation of intestinal KLRG1+ILC2s.
The presence at homeostasis of α-CGRP receptors on ILC2s and α-CGRP's expression on ChAT^+ intestinal neurons led Applicants to hypothesize that it has an effect on ILC2s during homeostasis. To test this hypothesis, Applicants next measured the expression profiles of intestinal KLRG1^+ ILC2s stimulated in vitro by α-CGRP alone, and identified genes differentially expressed under this signal (FIG. 6D, Methods).
ILC2 culture. Sort-purified intestinal KLRG1^+ ILC2s were incubated in RPMI supplemented with 10% FCS, 10 mM Hepes, 1 mM sodium pyruvate, 10% FBS, 80 μm 2-mercaptoethanol, 2 mM glutamine, 100 U/ml penicillin, […] streptomycin, 100 ng/ml IL-2 and 100 ng/ml IL-7 in 96-well round bottom plate at 37° C. and 5% CO2. If indicated, the culture was supplemented with 100 ng/ml IL-25. For the in vitro proliferation assay, cells from different mice were pooled and labeled with CellTrace Violet, and then cultured at 1,000-1,500 cells per well with 10 μg/ml α-CGRP for 60 hours. When indicated, 10 μM forskolin or 1 μM SQ 22, 536 in DMSO was supplied and cells were cultured for 40 hours. For bulk RNA-seq, cells from individual mice were stimulated at 200 cells per well with 0.4 μg/ml α-CGRP for 3 hours. For bulk ATAC-seq, cells were stimulated with 0.4 μg/ml α-CGRP for 2 hours.
Bulk RNA-seq. 200 ILC2s from each condition were lysed in 10 ul TCL buffer plus 0.5% 2-Mercaptoethanol. Libraries were processed with SMART-Seq2 (Picelli et al., 2013) with at least three replicates per condition, and paired-end sequenced (75 bp×2) with a […] Nextseq 500 high output V2 kit.
Reads were aligned to the mouse reference genome (NCBI 38, mm10) using Bowtie (Langmead et al., 2009) with default parameters, and expression abundances were estimated using RSEM software (Li and Dewey, 2011). The differential gene expression analysis was performed with edgeR (Robinson et al., 2010) with default parameters.

KLRG1+ ILC2s [2] = assay: IL-25-induced in vivo ILC2 activation model; parameters: species or system mouse; conditions: IL-25 administration alone
Description: Intraperitoneal administration of α-CGRP impaired IL-25-induced expansion of KLRG1^+ ILC2s (FIGS. 5B and 12A), consistent with the in vitro results. Recent work has shown that intestinal KLRG1^+ ILC2s can migrate to mesenteric lymph nodes (mLNs) and other tissues during inflammation via sphingosine 1-phosphate (S1P)-mediated chemotaxis (Huang et al., 2018). To determine whether α-CGRP primarily impacts intestinal or mLN ILC2s, Applicants relied on the fact that intestinal GATA3^+ ILC2s are generally phenotypically KLRG1^+ST2^− (data not shown), whereas mLN ILC2s are mainly ST2^+ at steady state (FIG. 5C). IL-25 administration increased the frequency of both KLRG1^+ST2^− inflammatory ILC2s and ST2^+ ILC2s in mLNs (FIGS. 5C-E and 12B). […] Thus, α-CGRP preferentially regulates the response of intestinal KLRG1^+ST2^− ILC2s. […] Taken together, α-CGRP antagonized expansion of intestinal KLRG1^+ ILC2s in two different type 2 inflammatory models.
To activate ILC2s in vivo, 200 ng of IL-25 was intraperitoneally injected into 7-10 weeks old mice daily for two days. 1 μg α-CGRP was injected together as noted.
as §1
Immunofluorescence staining and imaging. The small intestines were fixed in 2% PFA, embedded in O.C.T. Compound and sliced into 10 μm by frozen section. The slides were blocked with 0.1% Triton X-100, 2% FCS and donkey serum. […] The images were analyzed with ImageJ.

Molecule: Nc1ncnc2c1ncn2C1CCCO1 (stereo not drawn) [SQ22, 536, reference compound]
- α-CGRP inhibition of ILC2 proliferation (KLRG1+ ILC2s [1]): partially rescues

Molecule: CN1N=C(SCc2ccc(Cl)cc2Cl)Sc2c1cnn(C)c2=O [BTB09089, 3-[(2,4-dichlorobenzyl)thio]-1,6-dimethyl-5,6-dihydro-1H-pyridazino[4,5-e][1,3,4]thiadiazin-5-one]
- TDAG8 activation in vitro (TDAG8 (GPR65)): activate
- efficacy in ischemic stroke murine disease model (TDAG8): in vivo efficacy

B1: IL-25: cytokine used to activate ILC2s in vitro and in vivo (protein, UniProt Q8VHH8 17-169, looked up)
Interleukin-25: VSLRIQEGCSHLPSCCPSKEQEPPEEWLKWSSASVSPPEPLSHTHHAESCRASKDGPLNSRAISPWSYELDRDLNRVPQDLYHARCLCPHCVSLQTGSHMDPLGNSVPLYHNQTVFYRRPCHGEEGTHRRYCLERRLYRVSLACVCVRPRVMA
- activation phenotype (expression of type 2 cytokines Il13, Il5 and mitotic genes such as Myc) (intestinal KLRG1+ ILC2s): induced the expected activation phenotype
- frequency of KLRG1+ST2− inflammatory ILC2s in mLNs (KLRG1+ ILC2s [2]): increased
- frequency of ST2+ ILC2s in mLNs (KLRG1+ ILC2s [2]): increased
